Assay results reported in patent publication US12233129B2, “Methods and compositions for the treatment of cancer” (priority 2019, dated 2025).
Entries after “also recorded” stand apart in the source; their conditions may differ.

Columns and labels:
SW480 [1] = assay: Long-term (10 days) exposure colony formation / cell viability; assay type: cell-based, human; conditions: VTD 10-300 μM, mutant p53
Description: (§1) Because colon cancer cells develop resistance to chemotherapy after an initial response, we decided to investigate whether VTD can potentiate the cytotoxic effect of 5-FU when cells receiving long-term therapy mimicking the in vivo therapy. Cells were treated with VTD for 10 days.
(§2) FIG. 20: Sensitization of colon cancer cells to a long-term suboptimal dose of 5-fluorouracil exposure when combined with VTD. (A-D) (A) HCT-116, (B) LoVo, (C) SW-480, and (D) U2OS were treated with VTD (10-300 μM) for 10 days. […] (E-G) (E) HCT-116, (F) LoVo, and (G) U-2OS were treated with suboptimal doses of 5-FU and VTD (50 and 100 μM) for 10 days. […] (H-I) A series of flow cytometry assays using an antibody against the CD44 cancer stem cell marker illustrated that VTD can target CD44+ colon cancer stem cells and eventually eliminate them in a dose-dependent manner, implicating VTD as a potential cancer stem cell-targeting therapy. (J) Tumor tissue lysates from 48 patients with colon cancer along the matched adjacent normal colon tissue lysates were probed with anti-UBXN2A and anti-Actin antibodies, followed by quantitation and normalization of signals. […] (I) The proposed mechanism action of VTD. VTD increases the expression of UBXN2A, which releases the p53 from mot-2's sequestration and, together with standard chemotherapy, can cause an effective tumor suppression.

LoVo [2] = assay: Cell detachment assay and live cell imaging; assay type: cell-based, human; conditions: dose- and time-dependent
Description: (§3) Based on the above results, we then hypothesized that VTD-induced UBXN2A leads to apoptosis and cell death mimicking the Tet-on induced-UBXN2A model (FIG. 15). As cell detachment and cell shrinking are ubiquitous aspects of apoptosis, we examined these features in four cancer cell lines: HCT116 (WT-p53), LoVo (WT-p53), SW-480 (mutant-p53), and U2OS (WT-p53), all in the presence of VTD (FIG. 17, S4).
(§4) The viability of cells was calculated as % of control.
(§5) FIG. 17: Induction of apoptosis and in vitro cytotoxicity by VTD in a human cancer cell line with different statuses of p53 and mot-2. (A-D) Cells were treated with VTD for 24, 48, and 72 hours. After incubation, dead cells were washed off, and the remaining attached cells were calculated by counting in five random fields using the Axiovert 200 M inverted microscope and AxioVision software (cell detachment assay). The % of cells attached was calculated as % of control cells. […] The data is shown as mean+SEM of three independent experiments (n=3, *p<0.05). (E-K) Cells were plated for 5 days, and the colonies of cells were treated with different concentration of VTD. The colonies of viable cells were stained with crystal violet dye and absorbance, as an index of measurement of colony forming units, was read at 562 nm (clonogenic survival assay). VTD induced a significant decrease in cell viability in a p53- and differentiation grade manner in HCT-116 poorly differentiated cells (E), HCT 116 p53+/−(F), HCT-116 p53−/− (G), LoVo well-differentiated cells (H), SW-480 (K), and two non-colon cancer cells: HepG2 (I) and U2OS (J). The data is shown as mean+SEM of three independent experiments (n=3, *p<0.05). (L) Determination of endogenous levels of mot-2, UBXN2A, HSC70, and p53 proteins in various cancer cell lines using WB. (M) HCT-116 cells were treated with VTD (10 and 30 μM) and cytoplasmic and nuclear fractions were subjected to WB. HSC70 and Orc-2 antibodies were used as cytoplasmic and nuclear markers, respectively.

HCT-116 [3] = assay: Cell detachment assay and live cell imaging; assay type: cell-based, human; conditions: dose- and time-dependent
Description: as §3, §4, §5

SW480 [4] = assay: Cell detachment assay and live cell imaging; assay type: cell-based, human; conditions: mutant p53
Description: as §3, §4, §5

U2OS [5] = assay: Cell detachment assay and live cell imaging; assay type: cell-based, human; conditions: dose- and time-dependent
Description: as §3, §4, §5

[6] = system: HCT-116-iRFP cancer cells; assay: HCT-116-iRFP xenograft mouse model; assay type: in vivo, Hsd:Athymic Nude-Foxn1nu mice; conditions: IP 0.1 mg/kg every other day for 5 weeks versus Ethanol
Description: Five week Hsd:Athymic Nude-Foxn1^nu mice were implanted with 1×10^6 HCT-116-iRFP cancer cells at both flanks followed by IP injection of Ethanol (con) or Veratridine (VTD-0.1 mg/kg) every other day for 5 weeks. Twelve mice were used per treatment with 6 males and 6 females in each group.

LoVo [7] = assay type: cell-based, human; conditions: 10 days
Description: as §1
(§6) Based on the significant effect of long-term exposure in LoVo and U2OS, we hypothesized that VTD could be a potential complementary strategy alongside 5-FU, an effective drug with a high rate of resistant events in colon tumors. To answer this question, we first determined the minimum concentration of 5-FU that has no effect or a very mild effect on cell viability after 10 days' exposure in three cell lines HCT-116, LoVo, and U2OS (data not shown). We performed the 10 days' treatment using a combination of a low dose of VTD (50 μM or 100 μM) plus a suboptimal dose of 5-FU (1 μM or 5 μM).
as §2

HCT-116 [8] = assay type: cell-based, human; conditions: 10 days
Description: as §1, §6, §2

U2OS [9] = assay type: cell-based, human; conditions: 10 days
Description: as §1, §6, §2

[10] = VTD 50 or 100 μM plus 5-FU 1 or 5 μM

COc1ccc(C(=O)O[C@H]2CC[C@@]3(C)[C@@H]4CC[C@H]5[C@]6(O)C[C@H](O)[C@@]7(O)[C@@H](CN8C[C@@H](C)CC[C@H]8[C@@]7(C)O)[C@]6(O)C[C@@]53O[C@]24O)cc1OC [VTD, Veratridine]
cell viability, long-term exposure (SW480 [1]): no response
cell detachment (% of cells attached) (LoVo [2]; 24, 48 and 72 hours): significantly increases cell detachment; also recorded: significantly decreases the % of cells attached
cell shrinking and rounding (live cell imaging) (LoVo [2]): induces cell shrinking and rounding
cell detachment (% of cells attached) (HCT-116 [3]; 24, 48 and 72 hours): significantly increases cell detachment; also recorded: significantly decreases the % of cells attached
cell shrinking and rounding (live cell imaging) (HCT-116 [3]): induces cell shrinking and rounding
cell detachment (% of cells attached) (SW480 [4]; 24, 48 and 72 hours): no effect on cell detachment; also recorded: not with mutant p53
cell shrinking and rounding (live cell imaging) (SW480 [4]): remain unchanged
cell detachment (% of cells attached) (U2OS [5]; 24, 48 and 72 hours): significantly increases cell detachment; also recorded: significantly decreases the % of cells attached
cell shrinking and rounding (live cell imaging) (U2OS [5]): induces cell shrinking and rounding
growth of tumor [6]: slowdown growth of tumor
cell viability, long-term exposure (LoVo [7]; VTD 10-300 μM): significant decrease in cell viability in a dose-dependent manner
cytotoxic effect of suboptimal 5-FU in presence of VTD (LoVo [7]; [10]): significantly potentiated the cytotoxic effect of the suboptimal dose of 5-FU
cell viability, long-term exposure (HCT-116 [8]; VTD 10-300 μM): only responded to a high concentration of VTD
cytotoxic effect of suboptimal 5-FU in presence of VTD (HCT-116 [8]; [10]): significantly potentiated the cytotoxic effect of the suboptimal dose of 5-FU
cell viability, long-term exposure (U2OS [9]; VTD 10-300 μM): significant decrease in cell viability in a dose-dependent manner
cytotoxic effect of suboptimal 5-FU in presence of VTD (U2OS [9]; [10]): significantly potentiated the cytotoxic effect of the suboptimal dose of 5-FU
